From ChEMBL document CHEMBL3044631, “Synthesis of 2-[4,5-dimethyl-1-(phenylamino)-1H-imidazol-2-ylthio]-N-(thiazole-2-yl)acetamide derivatives and their anticancer activities” (2013)

What was measured:
Type in all cases: functional
[1] = system: ACHN; assay: Anticancer activity against Homo sapiens (human) ACHN cells assessed as cell growth promotion at 10 uM after 48 hr by SRB assay
[2] = system: SNB-75; assay: Anticancer activity against Homo sapiens (human) SNB75 cells assessed as cell growth promotion at 10 uM after 48 hr by SRB assay
[3] = system: MDA-MB-231; assay: Anticancer activity against Homo sapiens (human) MDA-MB-231/ATCC cells assessed as cell growth promotion at 10 uM after 48 hr by SRB assay
[4] = system: M14; assay: Anticancer activity against Homo sapiens (human) M14 cells assessed as cell growth promotion at 10 uM after 48 hr by SRB assay
[5] = system: HCT-15; assay: Anticancer activity against Homo sapiens (human) HCT15 cells assessed as cell growth promotion at 10 uM after 48 hr by SRB assay
[6] = system: HCC 2998; assay: Anticancer activity against Homo sapiens (human) HCC2998 cells assessed as cell growth promotion at 10 uM after 48 hr by SRB assay
[7] = system: MCF7; assay: Anticancer activity against Homo sapiens (human) MCF7 cells assessed as cell growth promotion at 10 uM after 48 hr by SRB assay
[8] = system: SF-295; assay: Anticancer activity against Homo sapiens (human) SF295 cells assessed as cell growth promotion at 10 uM after 48 hr by SRB assay
[9] = system: U-251; assay: Anticancer activity against Homo sapiens (human) U251 cells assessed as cell growth promotion at 10 uM after 48 hr by SRB assay
[10] = system: HCT-116; assay: Anticancer activity against Homo sapiens (human) HCT116 cells assessed as cell growth promotion at 10 uM after 48 hr by SRB assay
[11] = system: SR; assay: Anticancer activity against Homo sapiens (human) SR cells assessed as cell growth promotion at 10 uM after 48 hr by SRB assay
[12] = system: EKVX; assay: Anticancer activity against Homo sapiens (human) EKVX cells assessed as cell growth promotion at 10 uM after 48 hr by SRB assay
[13] = system: TK-10; assay: Anticancer activity against Homo sapiens (human) TK10 cells assessed as cell growth promotion at 10 uM after 48 hr by SRB assay
[14] = system: CAKI-1; assay: Anticancer activity against Homo sapiens (human) CAKI-1 cells assessed as cell growth promotion at 10 uM after 48 hr by SRB assay
[15] = system: UACC-62; assay: Anticancer activity against Homo sapiens (human) UACC62 cells assessed as cell growth promotion at 10 uM after 48 hr by SRB assay
[16] = system: NCI-H460; assay: Anticancer activity against Homo sapiens (human) NCI-H460 cells assessed as cell growth promotion at 10 uM after 48 hr by SRB assay
[17] = system: HT-29; assay: Anticancer activity against Homo sapiens (human) HT-29 cells assessed as cell growth promotion at 10 uM after 48 hr by SRB assay
[18] = system: T47D; assay: Anticancer activity against Homo sapiens (human) T47D cells assessed as cell growth promotion at 10 uM after 48 hr by SRB assay
[19] = system: Hs-578T; assay: Anticancer activity against Homo sapiens (human) Hs 578T cells assessed as cell growth promotion at 10 uM after 48 hr by SRB assay
[20] = system: OVCAR-3; assay: Anticancer activity against Homo sapiens (human) OVCAR3 cells assessed as cell growth promotion at 10 uM after 48 hr by SRB assay
[21] = system: DU-145; assay: Anticancer activity against Homo sapiens (human) DU145 cells assessed as cell growth promotion at 10 uM after 48 hr by SRB assay
[22] = system: KM12; assay: Anticancer activity against Homo sapiens (human) KM12 cells assessed as cell growth promotion at 10 uM after 48 hr by SRB assay
[23] = system: RPMI-8226; assay: Anticancer activity against Homo sapiens (human) RPMI8226 cells assessed as cell growth promotion at 10 uM after 48 hr by SRB assay
[24] = system: MOLT-4; assay: Anticancer activity against Homo sapiens (human) MOLT4 cells assessed as cell growth promotion at 10 uM after 48 hr by SRB assay
[25] = system: SF-268; assay: Anticancer activity against Homo sapiens (human) SF268 cells assessed as cell growth promotion at 10 uM after 48 hr by SRB assay
[26] = system: SF-539; assay: Anticancer activity against Homo sapiens (human) SF539 cells assessed as cell growth promotion at 10 uM after 48 hr by SRB assay
[27] = system: SK-MEL-2; assay: Anticancer activity against Homo sapiens (human) SK-MEL-2 cells assessed as cell growth promotion at 10 uM after 48 hr by SRB assay
[28] = system: LOX IMVI; assay: Anticancer activity against Homo sapiens (human) LOXIMVI cells assessed as cell growth promotion at 10 uM after 48 hr by SRB assay
[29] = system: SNB-19; assay: Anticancer activity against Homo sapiens (human) SNB19 cells assessed as cell growth promotion at 10 uM after 48 hr by SRB assay
[30] = system: SK-OV-3; assay: Anticancer activity against Homo sapiens (human) SKOV3 cells assessed as cell growth promotion at 10 uM after 48 hr by SRB assay
[31] = system: OVCAR-5; assay: Anticancer activity against Homo sapiens (human) OVCAR5 cells assessed as cell growth promotion at 10 uM after 48 hr by SRB assay
[32] = system: SN12C; assay: Anticancer activity against Homo sapiens (human) SN12C cells assessed as cell growth promotion at 10 uM after 48 hr by SRB assay
[33] = system: A498; assay: Anticancer activity against Homo sapiens (human) A498 cells assessed as cell growth promotion at 10 uM after 48 hr by SRB assay
[34] = system: NCI-H522; assay: Anticancer activity against Homo sapiens (human) NCI-H522 cells assessed as cell growth promotion at 10 uM after 48 hr by SRB assay
[35] = system: A549; assay: Anticancer activity against Homo sapiens (human) A549/ATCC cells assessed as cell growth promotion at 10 uM after 48 hr by SRB assay
[36] = system: IGROV-1; assay: Anticancer activity against Homo sapiens (human) IGROV1 cells assessed as cell growth promotion at 10 uM after 48 hr by SRB assay
[37] = system: K562; assay: Anticancer activity against Homo sapiens (human) K562 cells assessed as cell growth promotion at 10 uM after 48 hr by SRB assay
[38] = system: Malme-3M; assay: Anticancer activity against Homo sapiens (human) MALME-3M cells assessed as cell growth promotion at 10 uM after 48 hr by SRB assay
[39] = system: SW-620; assay: Anticancer activity against Homo sapiens (human) SW620 cells assessed as cell growth promotion at 10 uM after 48 hr by SRB assay
[40] = system: OVCAR-8; assay: Anticancer activity against Homo sapiens (human) OVCAR8 cells assessed as cell growth promotion at 10 uM after 48 hr by SRB assay
[41] = system: HL-60(TB); assay: Anticancer activity against Homo sapiens (human) HL-60(TB) cells assessed as cell growth promotion at 10 uM after 48 hr by SRB assay

COc1ccc(Nn2c(SCC(=O)Nc3nc(-c4ccc(Cl)cc4)cs3)nc(C)c2C)cc1
Activity [1]: 52.04%
Activity [2]: 56.63%
Activity [3]: 79.71%
Activity [4]: 62.46%
Activity [5]: 59.76%
Activity [6]: 54.24%
Activity [7]: 16.16%
Activity [8]: 43.89%
Activity [9]: 43.51%
Activity [10]: 27.81%
Activity [11]: 40.3%
Activity [12]: 41.94%
Activity [13]: 68.5%
Activity [14]: 34.44%
Activity [15]: 49.53%
Activity [16]: 39.32%
Activity [17]: 30.12%
Activity [18]: 39.43%
Activity [19]: 86.14%
Activity [20]: 60.75%
Activity [21]: 79.62%
Activity [22]: 43.08%
Activity [23]: 35.7%
Activity [24]: 36.1%
Activity [25]: 66.13%
Activity [26]: 79.14%
Activity [27]: 90.48%
Activity [28]: 38.91%
Activity [29]: 79.24%
Activity [30]: 81.45%
Activity [31]: 111.33%
Activity [32]: 67.16%
Activity [33]: 69.49%
Activity [34]: 66.22%
Activity [35]: 44%
Activity [36]: 70.85%
Activity [37]: 26.88%
Activity [38]: 99.15%
Activity [39]: 75.2%
Activity [40]: 43.88%

Cc1nc(SCC(=O)Nc2nccs2)n(Nc2ccc(Cl)cc2)c1C
Activity [1]: 104.69%
Activity [2]: 92.05%
Activity [3]: 98.69%
Activity [4]: 97.83%
Activity [5]: 102.77%
Activity [6]: 115.62%
Activity [7]: 104.33%
Activity [8]: 97.66%
Activity [9]: 108.53%
Activity [10]: 94.47%
Activity [11]: 120.95%
Activity [12]: 123.2%
Activity [13]: 120.55%
Activity [14]: 101.14%
Activity [15]: 104.39%
Activity [16]: 106%
Activity [17]: 108.32%
Activity [18]: 91.74%
Activity [19]: 121.05%
Activity [20]: 117.12%
Activity [21]: 122.72%
Activity [22]: 113.75%
Activity [23]: 104.54%
Activity [24]: 117.57%
Activity [25]: 112.74%
Activity [26]: 90.1%
Activity [27]: 116.11%
Activity [28]: 101.8%
Activity [29]: 121.25%
Activity [30]: 102.45%
Activity [31]: 87.36%
Activity [32]: 96.39%
Activity [33]: 101.93%
Activity [34]: 111.97%
Activity [35]: 101.96%
Activity [36]: 126.1%
Activity [41]: 95.84%
Activity [37]: 112.86%
Activity [38]: 140.83%
Activity [39]: 123.41%
Activity [40]: 104.9%

Cc1nc(SCC(=O)Nc2nc(-c3ccc(Cl)cc3)cs2)n(Nc2ccccc2)c1C
Activity [1]: 49.37%
Activity [2]: 39.12%
Activity [3]: 48.83%
Activity [4]: 47.55%
Activity [5]: 57.63%
Activity [6]: 69.51%
Activity [7]: 27.14%
Activity [8]: 31.02%
Activity [9]: 36.61%
Activity [10]: 29.45%
Activity [11]: 12.66%
Activity [12]: 34.55%
Activity [13]: 56.83%
Activity [14]: 36.74%
Activity [15]: 34.83%
Activity [16]: 52.96%
Activity [17]: 25.29%
Activity [18]: 26.64%
Activity [19]: 70.58%
Activity [20]: 61.29%
Activity [21]: 65.41%
Activity [22]: 57.14%
Activity [24]: 41.02%
Activity [25]: 56.4%
Activity [26]: 35.42%
Activity [27]: 84.99%
Activity [28]: 26.08%
Activity [29]: 59.64%
Activity [30]: 68.56%
Activity [31]: 65.75%
Activity [32]: 39.25%
Activity [33]: 74.31%
Activity [34]: 47.28%
Activity [35]: 28.85%
Activity [36]: 68.44%
Activity [41]: 42.07%
Activity [37]: 27.56%
Activity [38]: 99.3%
Activity [39]: 73.1%
Activity [40]: 31.91%

Cc1nc(SCC(=O)Nc2nccs2)n(Nc2ccccc2)c1C
Activity [1]: 95.27%
Activity [2]: 85.3%
Activity [3]: 95.5%
Activity [4]: 96.9%
Activity [5]: 97.16%
Activity [6]: 101.96%
Activity [7]: 98.76%
Activity [8]: 86.6%
Activity [9]: 102.44%
Activity [10]: 93.75%
Activity [11]: 100.2%
Activity [12]: 115.74%
Activity [13]: 111.75%
Activity [14]: 102.08%
Activity [15]: 94.24%
Activity [16]: 102.18%
Activity [17]: 99.8%
Activity [18]: 90.52%
Activity [19]: 115.31%
Activity [20]: 116.22%
Activity [21]: 116.36%
Activity [22]: 109.29%
Activity [23]: 100.95%
Activity [24]: 108.49%
Activity [25]: 106.58%
Activity [26]: 86.84%
Activity [27]: 106.73%
Activity [28]: 99.28%
Activity [29]: 108.55%
Activity [30]: 102.5%
Activity [31]: 80.93%
Activity [32]: 94.4%
Activity [33]: 101.7%
Activity [34]: 102.09%
Activity [35]: 98.55%
Activity [36]: 123.21%
Activity [41]: 96.52%
Activity [37]: 101.35%
Activity [38]: 121.77%
Activity [39]: 116.34%
Activity [40]: 95.17%
